# Patent US20240132531A1, “NOVEL GALACTOSIDE INHIBITOR OF GALECTINS” (GALECTO BIOTECH AB, priority 2020, published 2024)
# Experiments:
# galectin-1 = galectin-1 (Homo sapiens, UniProt P09382); experiment: Fluorescence anisotropy assay, affinity for galectin-1; format: binding; settings: compound as inhibitor of the interaction between galectin and a fluorescein tagged saccharide probe; read-out: Gal-1 Kd
# Experimental: (§1) The affinity of Example 1-39 for galectins were determined by a fluorescence anisotropy assay where the compound was used as an inhibitor of the interaction between galectin and a fluorescein tagged saccharide probe as described Sarme, P., Kahl-Knutsson, B., Huflejt, M., Nilsson, U. J., and Leffler H. (2004) Fluorescence polarization as an analytical tool to evaluate galectin-ligand interactions. Anal. Biochem. 334: 36-47, (Sarme et al., 2004) and Monovalent interactions of Galectin-1 By Salomonsson, Emma; Larumbe, Amaia; Tejler, Johan; Tullberg, Erik; Rydberg, Hanna; Sundin, Anders; Khabut, Areej; Frejd, Torbjorn; Lobsanov, Yuri D.; Rini, James M.; et al, From Biochemistry (2010), 49(44), 9518-9532, (Salomonsson et al., 2010).
# galectin-3 = galectin-3 (Homo sapiens, UniProt P17931); experiment: Fluorescence anisotropy assay, affinity for galectin-3; format: binding; settings: compound as inhibitor of the interaction between galectin and a fluorescein tagged saccharide probe; read-out: Gal-3 Kd
# Chain of galectin-3 (P17931 whole entry): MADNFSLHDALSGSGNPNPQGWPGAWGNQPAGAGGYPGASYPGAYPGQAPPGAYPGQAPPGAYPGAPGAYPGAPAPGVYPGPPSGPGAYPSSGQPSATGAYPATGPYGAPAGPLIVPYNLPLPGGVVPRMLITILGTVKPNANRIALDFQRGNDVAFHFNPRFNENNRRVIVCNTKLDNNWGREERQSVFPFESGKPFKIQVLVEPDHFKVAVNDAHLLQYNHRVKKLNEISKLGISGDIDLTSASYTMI
# Experimental: as §1
# Chain of galectin-1 (P09382 whole entry): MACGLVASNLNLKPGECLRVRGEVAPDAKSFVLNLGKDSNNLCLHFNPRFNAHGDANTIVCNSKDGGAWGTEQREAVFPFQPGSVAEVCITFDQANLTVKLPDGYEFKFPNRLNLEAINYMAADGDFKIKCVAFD
Kd (galectin-1) [µM],Kd (galectin-3) [µM],SMILES
0.036,0.45,"COC1C(n2cc(-c3nc(Cl)cs3)nn2)[C@@H](O)C(CO)O[C@H]1c1ccnn1-c1cc(Cl)ccc1C(F)(F)F (stereo partly drawn) [Example 1, 1-{5-{3-[4-(4-Chlorothiazol-2-yl)-1H-1,2,3-triazol-1-yl]-3-deoxy-2-O-methyl-β-D-galactopyranosyl}-1H-1,2-pyrazol-1-yl}-5-chloro-2-(trifluoromethyl)benzene]"
0.17,7.56,"COC1C(n2cc(-c3nccs3)nn2)[C@@H](O)C(CO)O[C@H]1c1ccnn1-c1cc(Cl)ccc1C(F)(F)F (stereo partly drawn) [Example 2, 5-Chloro-1-{5-{3-deoxy-2-O-methyl-3-[4-(2-thiazolyl)-1H-1,2,3-triazol-1-yl]-β-D-galactopyranosyl}-1H-1,2-pyrazol-1-yl}-2-(trifluoromethyl)benzene]"
0.47,0.44,"COC1C(n2cc(-c3ncc(C)s3)nn2)[C@@H](O)C(CO)O[C@H]1c1ccnn1-c1cc(Cl)ccc1C(F)(F)F (stereo partly drawn) [Example 3, 5-Chloro-1-{5-{3-deoxy-3-[4-(5-methylthiazol-2-yl)-1H-1,2,3-triazol-1-yl]-2-O-methyl-β-D-galactopyranosyl}-1H-1,2-pyrazol-1-yl}-2-(trifluoromethyl)benzene]"
0.26,3.26,"COC1C(n2cc(-c3nc(C)cs3)nn2)[C@@H](O)C(CO)O[C@H]1c1ccnn1-c1cc(Cl)ccc1C(F)(F)F (stereo partly drawn) [Example 4, 5-Chloro-1-{5-{3-deoxy-3-[4-(4-methylthiazol-2-yl)-1H-1,2,3-triazol-1-yl]-2-O-methyl-β-D-galactopyranosyl}-1H-1,2-pyrazol-1-yl}-2-(trifluoromethyl)benzene]"
0.21,4.83,"OCC1O[C@@H](c2ccnn2-c2cc(Cl)ccc2C(F)(F)F)C(O)C(n2cc(-c3nccs3)nn2)[C@H]1O (stereo partly drawn) [Example 5, 5-Chloro-1-{5-{3-deoxy-3-[4-(2-thiazolyl)-1H-1,2,3-triazol-1-yl]-β-D-galactopyranosyl}-1H-1,2-pyrazol-1-yl}-2-(trifluoromethyl)benzene]"
0.12,10.8,"Nc1nc(-c2cn(C3C(O)[C@H](c4ccnn4-c4cc(Cl)ccc4C(F)(F)F)OC(CO)[C@@H]3O)nn2)cs1 (stereo partly drawn) [Example 6, 1-{5-{3-[4-(2-Aminothiazol-4-yl)-1H-1,2,3-triazol-1-yl]-3-deoxy-β-D-galactopyranosyl}-1H-1,2-pyrazol-1-yl}-5-chloro-2-(trifluoromethyl)benzene]"
0.029,5.83,"OCC1O[C@@H](c2ccnn2-c2cc(Cl)ccc2C(F)(F)F)C(O)C(n2cc(-c3csc(O)n3)nn2)[C@H]1O (stereo partly drawn) [Example 7, 5-Chloro-1-{5-{3-deoxy-3-[4-(2-hydroxythiazol-4-yl)-1H-1,2,3-triazol-1-yl]-β-D-galactopyranosyl}-1H-1,2-pyrazol-1-yl}-2-(trifluoromethyl)benzene]"
0.27,0.88,"OCC1O[C@@H](c2ccnn2-c2cc(Cl)ccc2C(F)(F)F)C(O)C(n2cc(-n3ccc(Cl)n3)nn2)[C@H]1O (stereo partly drawn) [Example 8, 1-{5-{3-[4-(3-Chloro-1H-1,2-pyrazol-1-yl)-1H-1,2,3-triazol-1-yl]-3-deoxy-β-D-galactopyranosyl}-1H-1,2-pyrazol-1-yl}-5-chloro-2-(trifluoromethyl)benzene]"
0.037,0.37,"Cc1cc([C@@H]2OC(CO)[C@H](O)C(n3cc(-c4nc(Cl)cs4)nn3)C2O)n(-c2cc(Cl)ccc2C(F)(F)F)n1 (stereo partly drawn) [Example 9, 1-{5-{3-[4-(4-Chlorothiazol-2-yl)-1H-1,2,3-triazol-1-yl]-3-deoxy-β-D-galactopyranosyl}-3-methyl-1H-1,2-pyrazol-1-yl}-5-chloro-2-(trifluoromethyl)benzene]"
0.043,0.33,"OCC1O[C@@H](c2ccnn2-c2cc(Cl)ccc2C(F)(F)F)C(O)C(n2cc(-c3ncc(Cl)s3)nn2)[C@H]1O (stereo partly drawn) [Example 10, 1-{5-{3-[4-(5-Chlorothiazol-2-yl)-1H-1,2,3-triazol-1-yl]-3-deoxy-β-D-galactopyranosyl}-1H-1,2-pyrazol-1-yl}-5-chloro-2-(trifluoromethyl)benzene]"
